Test results reported in publication PMC4191062, “Development of αGlcN(1↔1)αMan-Based Lipid A Mimetics as a Novel Class of Potent Toll-like Receptor 4 Agonists” (Journal of Medicinal Chemistry, 2014).

What was measured:
human dendritic cells = experiment: Cytokine production in human monocyte-derived dendritic cells (Luminex); assay type: cell-based; conditions: hDCs, 24 h
Experimental: Activated DCs were examined for the production of pro-inflammatory cytokines TNF-α, IL-6, and IL-12, which contribute to the modulation of the T cell response and innate effector functions.[57] The release of TNF-α and IL-6 reached nearly maximum levels (attained with 10 ng/mL LPS) at the α,α-GM-LAM 1 concentration of 1 ng/mL (Figure 7A).
Human peripheral blood monocytes were cultured for 6 days in GM-CSF and IL-4 to receive immature monocyte-derived DCs and were then stimulated with the indicated concentrations of 1 and 3 using 10 ng/mL LPS as positive control (solutions in PRMI containing 10% FCS and 0.005–0.01% DMSO). The amounts of IL-6, IL-12, IL-10, and TNF-α in the supernatants of the cells were analyzed after 24 h by Luminex. Results are representative of three independent experiments for 1 and of two experiments for 3. Mean values of duplicate examinations ± SD are presented.

[1] = test system: bone marrow-derived macrophages (BMDM); experiment: TNF-α and IL-6 production in mouse bone marrow-derived macrophages (ELISA); assay type: cell-based, C57BL/6J mice; conditions: mBMDM
Experimental: The ability of Lipid A mimetics 1–3 to induce the production of TNF-α and IL-6 from bone marrow-derived macrophages (BMDM) in mice was subsequently examined and compared to that of synthetic E. coli Lipid A and E. coli MPLA, which are reliable positive controls due to their chemical purity and homogeneity (Figure 6). […] Likewise, 1 nM (1.8 ng/mL) of 1 or 2 triggered the release of a 3-fold higher amount of IL-6 (1500 pg/mL) compared to Lipid A (500 pg/mL).
Bone-marrow-derived microphages (BMDMs) were isolated and differentiated from the bone marrow of C57BL/6J mice. The bone marrow was flushed from femur and fibia with RPMI media. The erythrocytes were lysed with 0.88% ammonium chloride, 15 min at 37 °C. A single-cell suspension of the bone marrow cells was then seeded in cell culture flasks at a concentration of 1 × 10^6 cells/mL in RPMI supplemented with 20% FBS and 40 ng/mL recombinant M-CSF. The cell culture medium was changed on day 3. On day 6, the differentiated cells were trypsinized, counted, and seeded in 24-well plates at a concentration of 1 × 10^6 cells/mL in RPMI supplemented with 10% FBS. After 24 h, the cells were stimulated with Lipid A mimetics 1–3 and with synthetic E. coli Lipid A/MPLA (E. coli O111:B4 LPS was used as positive control) for 16 h. The nanomolar concentrations of 1–3 were calculated according to the MW of the synthetic compounds. The supernatants were then tested for cytokines using Ready-Set-Go ELISA kits (eBioscience).

THP-1 cells = experiment: Cytokine expression (TNF-α, IL-8, MCP-1; ELISA) in TPA-differentiated THP-1 macrophage-like cells; assay type: cell-based, human; conditions: for activation of the MyD88 signaling pathway compared to Re-LPS/LPS: THP-1; for potency in induction of expression of IL-8 compared to Re-LPS/LPS / potency in induction of expression of TNF-α compared to Re-LPS/LPS: dose-dependent
Experimental: Lipid A mimetics 1–3 were examined for the ability to initiate the expression of tumor necrosis factor-α (TNF-α), interleukin-8 (IL-8), and monocyte chemotactic protein-1 (MCP-1) in the human monocytic macrophage-like cell line THP-1, which expresses MD-2, CD14, and a variety of cell surface receptors, including TLR4.
THP-1 cells were grown in RPMI-1640 cell-culture medium (Life Technologies) that was supplemented with 2 mM L-glutamine, 100 U/mL penicillin, 100 μg/mL streptomycin, and 10% FCS. Cells were seeded in a 96-well plate at 10^5 cells/well in 150 μL of complete medium and stimulated by 200 nM TPA for 24 h to induce the differentiation into macrophage-like cells.[59] […] Cells were stimulated with α,α-GM-LAMs 1–3 at the indicated concentration and with E. coliRe-LPS (or E. coli O111:B4 LPS), which were added as solutions in 10 μL of complete medium. The total volume of the well after stimulation reached 220 μL. The cells were incubated for 18 h, and the supernatants were analyzed for TNF-α, IL-8, and MCP-1 by ELISA (BD Biosciences).
Supplementary SI-Figure 2
E. coli wild type O111:B4 LPS is a large heterogeneous molecule with molecular weight (MW) comprising 10-15 kDa. Since we were particularly interested in the molecular recognition mechanisms implicated in the binding of LPS by the MD-2∙TLR4 complex wherein the Lipid A/Re-LPS (MW 1.8/2.2 kDa, respectively) portion of LPS is mostly involved, we have analyzed the dose-dependent THP-1 cells activation by synthetic α,α-GM-LAM 1-3 (at the concentrations 0.1 – 300 ng/ml) compared to E. coli Re-LPS which is more appropriate in this instance. Since the divergences in the expression of different cytokines by E. coli LPS vs. Re-LPS are only scarcely reported in the literature, we have performed dose-dependent activation experiments comparing expression of TNF-α, IL-8 and MCP-1 by E. coli O111:B4 LPS and E. coli Re-LPS at the concentrations 0.4 – 100 nM. Wild-type LPS (MW 10 […]
range (0.4 – 10 nM), whereas at the concentrations above 10 nM (50 nM for MCP-1) the levels of cytokines […]
This might be explained by a different aggregation state of Re-LPS and wild type LPS, and, therefore, the alterations in the transfer of a single LPS molecule to TLR4∙MD-2 complex by LBP and CD-14. Higher MW (> 10 kDa) of the LPS molecule applied for the calculations of the concentrations in [nM] would result in the shift of the activation profile induced by wild-type LPS. Calculation of EC50 values were hardly possible, since the maximum TLR4 saturation levels were not achieved at the concentrations tested.
SI-Figure 2. Dose-dependent expression of pro-inflammatory cytokines TNF-α, IL-8 and MCP-1 in human macrophage cell line THP-1 by E. coli Re-LPS compared to E. coli wild-type O111:B4 LPS. (A) Comparative expression of TNF-a; (B) comparative expression of IL-8; (C) comparative expression of MCP-1 […]
(1 picture or pasted object on this page, not shown here)
Supplementary SI-Figure 3
Dose-dependent responses (THP-1 cells: α,α-GM-LAM 1-3 and Re-LPS) at the concentration range 0.4 – 100 ng/ml which are presented in the Figure 5, were extended to the higher concentration range (up to 300 ng/ml).
SI-Figure 3. Dose-dependent expression of cytokines induced by α,α-GM-LAM 1-3 in macrophage cell line THP-1 compared to E. coli Re-LPS at the concentration range 0.4 – 300 ng/ml. (A) Production of TNF-α; (B) Induction of […]
Supplementary SI-Figure 4
Lipid A mimetic 1 was examined for the activation of NF-κB (Nuclear factor kappaB) and IRF3
(Interferon regulatory factor 3). IRF3 activation […]
noticeable after 1h stimulation, though was
LPS. At 1h stimulation the α,α-GM-LAM 1 was […]
whereas at 3h simulation compound 1 (at a […]
stronger phosphorylation of IκBa (P-IκBa levels) as well as the higher levels of IκBa (reflecting the NF-κB dependent re-synthesis of IκB following its
Thus, IRF3 activation and NF-κB activation […]
degradation and its NF-κB dependent resynthesis) […]
compared to LPS after 3h stimulation. […]

SMILES | release of TNF-α, IL-6, and IL-10 compared to 1 (human dendritic cells) | expression level of IL-6 ([1]; 1 nM) | IL-6 release compared to MPLA ([1]; concentrations above 1 nM) | induction of the expression of cytokines (THP-1 cells; THP-1, TNF-α, IL-8, MCP-1) | fold higher amount of IL-6 compared to Lipid A ([1]; 1 nM) [fold] | activation of the MyD88 signaling pathway compared to Re-LPS/LPS (THP-1 cells) | release of MCP-1 compared to Re-LPS and compound 1 (THP-1 cells; THP-1, 18 h) | potency in induction of expression of IL-8 compared to Re-LPS/LPS (THP-1 cells; THP-1, 18 h) | potency in induction of expression of TNF-α compared to Re-LPS/LPS (THP-1 cells; THP-1, 18 h) | concentration at which release of TNF-α and IL-6 reached nearly maximum levels (attained with 10 ng/mL LPS) (human dendritic cells) [ng/mL] | expression of IL-12 (human dendritic cells)
CCCCCCCCCCCCCC(=O)O[C@H](CCCCCCCCCCC)CC(=O)O[C@@H]1[C@@H](NC(=O)C[C@@H](CCCCCCCCCCC)OC(=O)CCCCCCCCCCC)[C@@H](O[C@H]2O[C@H](CO)[C@@H](OC(=O)C[C@@H](CCCCCCCCCCC)OC(=O)CCCCCCCCCCC)[C@H](O)[C@@H]2OC)O[C@H](CO)[C@H]1OP(=O)(O)O [Compound 3, 4-O-[(R)-3-(Dodecanoyloxy)tetradecanoyl]-2-O-methyl-α-D-mannopyranosyl-(1↔1)-2-deoxy-2-[(R)-3-(dodecanoyloxy)tetradecanoylamino]-4-O-phosphoryl-3-O-[(R)-3-(tetradecanoyloxy)tetradecanoyl]-α-D-glucopyranoside] | less efficient | only marginal expression level | higher IL-6 release than MPLA | dampened induction | – | – | – | – | – | – | –
CCCCCCCCCCCCCC(=O)O[C@H](CCCCCCCCCCC)CC(=O)O[C@@H]1[C@@H](NC(=O)C[C@@H](CCCCCCCCCCC)OC(=O)CCCCCCCCCCC)[C@@H](O[C@H]2O[C@H](COP(=O)(O)O)[C@@H](OC(=O)C[C@@H](CCCCCCCCCCC)OC(=O)CCCCCCCCC)[C@H](O)[C@@H]2OC)O[C@H](CO)[C@H]1OP(=O)(O)O [Compound 2, 4-O-[(R)-3-(Decanoyloxy)tetradecanoyl]-2-O-methyl-6-O-phosphoryl-α-mannopyranosyl-(1↔1)-2-deoxy-2-[(R)-3-(dodecanoyloxy)tetradecanoylamino]-4-O-phosphoryl-3-O-[(R)-3-(tetradecanoyloxy)tetradecanoyl]-α-D-glucopyranoside] | – | – | – | – | 3 | more potent activators | clearly more effective | higher potency | higher potency | – | –
CCCCCCCCCCCCCC(=O)O[C@H](CCCCCCCCCCC)CC(=O)O[C@@H]1[C@@H](NC(=O)C[C@@H](CCCCCCCCCCC)OC(=O)CCCCCCCCCCC)[C@@H](O[C@H]2O[C@H](COP(=O)(O)O)[C@@H](OC(=O)C[C@@H](CCCCCCCCCCC)OC(=O)CCCCCCCCCCC)[C@H](O)[C@@H]2OC)O[C@H](CO)[C@H]1OP(=O)(O)O [Compound 1, 4-O-[(R)-3-(Dodecanoyloxy)tetradecanoyl]-2-O-methyl-6-O-phosphoryl-α-D-mannopyranosyl-(1↔1)-2-deoxy-2-[(R)-3-(dodecanoyloxy)tetradecanoylamino]-4-O-phosphoryl-3-O-[(R)-3-(tetradecanoyloxy)tetradecanoyl]-α-D-glucopyranoside] | – | – | – | – | 3 | more potent activators | – | higher potency | higher potency | 1 | efficiently induced
